From patent publication US9284303B2, “Benzimidazole cannabinoid agonists bearing a substituted heterocyclic group” (priority 2006, dated 2016)
Where a name gives a salt, the structure may show the parent alone. Read-outs that look alike come from different tables or passages of the source.

Columns and labels:
[1] = biological target: T1, human CB2 (hCB2) receptor (Homo sapiens, UniProt P34972); assay: Inhibition of forskolin-activated cAMP production upon activation of hCB2 (HTRF), CHO-K1 cells; type: cell-based; conditions: for ratio CB2 agonism over CB1 agonism: Table C-1, selectivity hCB2 over hCB1; for EC50: forskolin-activated cAMP, pEC50=-log(EC50); for ratio CB2 over CB1 agonism: Table C-3, comparison of art compounds A to E with compounds of the invention
T1 construct: expressed in transfected cells; host or cells: CHO-K1
Protocol: (§1) Functional activity of the test compounds was assessed by measuring their potency to inhibit forskolin-activated cAMP production upon activation of the human CB1 (hCB1) or human CB2 (hCB2) receptor through homogenous time resolved fluorescence (HTRF) assays.
(§2) Before the experiments, medium was removed, cells were washed with PBS/EDTA (140 mM NaCl, 1 mM Naz-EDTA, 8 mM Na2HPO4.2H2O, 8.5 mM KH2PO4, 2.7 mM KCl, 21 mM glucose), resuspended in stimulation buffer (HBSS 1x, IBMX 1 mM, Hepes 5 mM, MgCl2 10 mM, BSA 0.1%, pH 7.4). Cells were diluted to a concentration of 8.10^5 cell/ml for hCB1 experiments and 10^6 cells/ml for hCB2 experiments. Assays were performed using the cAMP Dynamic HTRF kit (CIS bio international, France) according to the recommendations of the manufacturer.
Then, 20 μl of the diluted hCB2-CHO-K1 cells was added (20,000 cells/well). After 30 minutes incubation in dark at room temperature, 10 μl cAMP-XL665 and 10 μl anti-cAMP cryptate (both at a final dilution of 1/100) was added to the cells.

[2] = biological target: T2, human CB1 (hCB1) receptor (Homo sapiens, UniProt P21554); assay: Inhibition of forskolin-activated cAMP production upon activation of hCB1 (HTRF), CHO-K1 cells; type: cell-based; conditions: CB1 pEC50, hCB1-CHO-K1 cells, forskolin-activated cAMP, pEC50=-log(EC50)
T2 construct: expressed in transfected cells; host or cells: CHO-K1
Protocol: as §1
as §2, with “CHO-K1 cells stably transfected with either hCB1 or hCB2 were grown up to 80-90% confluence in T175 Falcon flasks in DMEM/NUT MIX F-12 culture medium complemented with 2% Solution A (5.10^6 IU/l penicillin G, 5 g/l streptomycin sulphate, 5.5 g/l pyruvate, 14.6 g/l L-glutamine, 1M NaOH) and 10% foetal calf serum. Before” for “Before”
For CB1, each well of a 96 flat bottom black polystyrene assay plate (Costar) was filled with 25 μl stimulation buffer containing 6 μM forskolin and either test compound (in 2% DMSO), 2% DMSO or 2 μM CP55490 (in 2% DMSO). Then, 25 μl of the diluted cells was added (20,000 cells/well). After 30 minutes incubation in dark at room temperature, 25 μl cAMP-XL665 and 25 μl anti-cAMP cryptate (both at a final dilution of 1/80) was added to the cells.
After equilibration of the reaction mixtures for 1 to 24 hours in dark at room temperature, fluorescence was measured at 665 nm and 620 nm using a Discovery microplate fluorescence counter (Perkin Elmer), and the signal ratio of 665 nm/620 nm was calculated. The signal ratios of the test compounds were expressed relative to the signal ratios of the DMSO control (maximal signal ratio, no inhibition of cAMP) and CP55490 or WIN55212-2 for hCB1 and hCB2, respectively (minimal signal ratio, maximal inhibition of cAMP). From the dose response curves generated for each test compound, the dose at which 50% of the maximal inhibition of cAMP level is observed (EC50, expressed in the Tables as pEC50=−log(EC50) values) and the level of inhibition reached with 10 μM of the test compound compared to CP55490 (for hCB1) or WIN55212-2 (for hCB2) was calculated.

[3] = hCB2-CHO-K1 cells, read-out: CB2 pEC50 (converted)

T2 sequence (P21554 whole entry): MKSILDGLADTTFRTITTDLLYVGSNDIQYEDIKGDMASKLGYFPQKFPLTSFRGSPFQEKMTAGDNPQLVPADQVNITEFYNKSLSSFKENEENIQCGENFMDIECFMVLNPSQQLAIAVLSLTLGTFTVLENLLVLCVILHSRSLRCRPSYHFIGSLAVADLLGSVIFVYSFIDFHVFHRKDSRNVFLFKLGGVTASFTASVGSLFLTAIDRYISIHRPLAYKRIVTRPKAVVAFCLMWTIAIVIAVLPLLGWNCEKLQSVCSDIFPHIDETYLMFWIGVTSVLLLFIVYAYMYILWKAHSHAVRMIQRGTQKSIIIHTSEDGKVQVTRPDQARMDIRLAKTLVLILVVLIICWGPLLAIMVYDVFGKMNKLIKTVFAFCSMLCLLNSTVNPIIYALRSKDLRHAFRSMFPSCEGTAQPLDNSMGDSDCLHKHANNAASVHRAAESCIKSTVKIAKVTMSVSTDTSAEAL
T1 sequence (P34972 whole entry): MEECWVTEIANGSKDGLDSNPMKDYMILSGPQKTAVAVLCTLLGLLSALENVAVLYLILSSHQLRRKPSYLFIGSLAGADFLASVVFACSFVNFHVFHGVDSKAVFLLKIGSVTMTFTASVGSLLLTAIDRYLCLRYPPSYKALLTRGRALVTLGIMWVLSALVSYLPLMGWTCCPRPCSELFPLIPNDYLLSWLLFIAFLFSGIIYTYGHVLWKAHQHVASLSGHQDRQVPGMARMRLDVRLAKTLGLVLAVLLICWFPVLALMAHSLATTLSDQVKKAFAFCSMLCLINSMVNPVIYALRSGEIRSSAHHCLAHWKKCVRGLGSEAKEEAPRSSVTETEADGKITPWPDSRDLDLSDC

| Compound | ratio CB2 agonism over CB1 agonism [1] | EC50 [1, 3] | EC50 [2] | melting point | ratio CB2 over CB1 agonism [1] | EC50 ([1]; CB2 pEC50, hCB2-CHO-K1 cells) |
| --- | --- | --- | --- | --- | --- | --- |
| CC(C)(C)c1nc2cc(S(=O)(=O)c3ccc(-c4ncon4)s3)ccc2n1CC1CCOCC1 [Co. No. 48] | 347 | 0.575 nM | 200 nM | 199 °C |  |  |
| CC(C)(C)c1nc2cc(S(=O)(=O)c3ccc(S(C)(=O)=O)o3)ccc2n1CC1CCOCC1 [Co. No. 20] | 347 | 1.26 nM | 437 nM | 165.2 °C | 346 |  |
| CCOc1cc(S(=O)(=O)c2ccc3c(c2)nc(C(C)(C)C)n3CCCC(F)(F)F)ccn1 |  |  |  | 137.7 °C |  |  |
| Cc1nccc(S(=O)(=O)c2ccc3c(c2)nc(C(C)(C)C)n3CC2CCOCC2)n1 [Co. No. 107] | 646 | 2.4 nM | 1550 nM | 179.7 °C |  |  |
| CC(C)(C)c1nc2cc(S(=O)(=O)c3cncc(C#N)c3)ccc2n1CC1CCCCC1 [Co. No. 36] | 108 | 0.676 nM | 72.4 nM | 215 to 216 °C |  |  |
| COCCNC(=O)c1ccc(S(=O)(=O)c2ccc3c(c2)nc(C(C)(C)C)n3CC2CCCCC2)nc1 [Co. No. 37] | >10839 | 0.933 nM | > 10000 nM | 206 to 207 °C |  |  |
| CC(C)(C)c1nc2cc(S(=O)(=O)c3ccnc(N)c3)ccc2n1CC1CCOCC1 [Co. No. 19] | 638 | 1.12 nM | 724 nM | 235.9 °C | 638 |  |
| Cc1cc(S(=O)(=O)c2ccc3c(c2)nc(C(C)(C)C)n3CC2CCOCC2)cc[n+]1[O-] [Co. No. 89] |  | 11.2 nM | > 10000 nM | 215.3 °C |  |  |
| CC(C)(C)c1nc2cc(S(=O)(=O)c3ccnc(Cl)c3)ccc2n1CC1CCOCC1 [Co. No. 18] | 933 | 0.676 nM | 631 nM | 201 °C |  |  |
| CC(C)(C)c1nc2cc(S(=O)(=O)c3cc[n+]([O-])cc3Br)ccc2n1CC1CCOCC1 [Co. No. 87] |  | 2.14 nM | 2290 nM | 205.3 °C |  |  |
| CC(C)(C)c1nc2cc(S(=O)(=O)c3ccnc(F)c3)ccc2n1C[C@H]1CC[C@H](O)CC1 [Co. No. 146] | >3981 | 2.51 nM | > 10000 nM | 163.6 °C |  |  |
| CC(C)(C)c1nc2cc(S(=O)(=O)c3cccc(C#N)n3)ccc2n1CC1CCOCC1 [Co. No. 98] | 794 | 0.955 nM | 741 nM | 224.5 to 226.7 °C |  |  |
| CC(C)(C)c1nc2cc(S(=O)(=O)c3coc(C(F)(F)F)c3)ccc2n1CC1CCOCC1 [Co. No. 106] | 432 | 0.724 nM | 316 nM | 168 to 169.5 °C |  |  |
| COC(C)c1ccc(S(=O)(=O)c2ccc3c(c2)nc(C(C)(C)C)n3CC2CCOCC2)nc1 (centres unmarked) [Co. No. 49] | >2138 | 4.68 nM | > 10000 nM | 140 °C |  |  |
| CC(C)(C)c1nc2cc(S(=O)(=O)c3cc[n+]([O-])cc3C(F)(F)F)ccc2n1CC1CCOCC1 [Co. No. 21] |  | 3.8 nM |  | 205.8 °C |  |  |
| Cc1cc(S(=O)(=O)c2ccc3c(c2)nc(CC(C)(C)C)n3CC2CCOCC2)cc[n+]1[O-] [Co. No. 102] |  | 5.01 nM | 9120 nM | 231.7 °C |  |  |
| CC(C)(C)c1nc2cc(S(=O)(=O)c3cc(Cl)nc(Cl)c3)ccc2n1CC1CCOCC1 [Co. No. 71] | >13490 | 0.741 nM | > 10000 nM | 198 °C |  |  |
| CC(=O)N1CCC(Cn2c(C(C)(C)C)nc3cc(S(=O)(=O)c4ccnc(F)c4)ccc32)CC1 |  |  |  | 193.9 °C |  |  |
| CC(C)(C)c1nc2cc(S(=O)(=O)c3ccnc(O)c3)ccc2n1CCCC(F)(F)F |  |  |  | 277.5 °C |  |  |

| Compound | ratio CB2 agonism over CB1 agonism [1] | EC50 [1, 3] | EC50 [2] | melting point | ratio CB2 over CB1 agonism [1] | EC50 ([1]; CB2 pEC50, hCB2-CHO-K1 cells) |
| --- | --- | --- | --- | --- | --- | --- |
| CC(C)(C)c1nc2cc(S(=O)(=O)c3ncc(C#N)s3)ccc2n1CCCC(F)(F)F |  |  |  | 122 °C |  |  |
| CC(O)c1ccc(S(=O)(=O)c2ccc3c(c2)nc(C(C)(C)C)n3CC2CCOCC2)nc1 (centres unmarked) [Co. No. 42] |  | 3.98 nM |  | 177 to 179 °C |  | 0.631 nM |
| CC(C)(C)c1nc2cc(S(=O)(=O)c3ccn(/C(F)=C\I)c(=O)c3)ccc2n1CC1CCOCC1 [Co. No. 91] | 1995 | 5.01 nM |  | 164.4 °C |  |  |
| CC(C)(C)c1nc2cc(S(=O)(=O)c3ccc(C(=O)N4CCCC4)o3)ccc2n1CC1CCOCC1 (as salt: HCl) [Co. No. 74] |  |  |  | 108.5 °C |  |  |
| CC(C)(C)c1nc2cc(S(=O)(=O)c3ccc(S(N)(=O)=O)s3)ccc2n1CC1CCOCC1 |  |  |  | 259 °C |  |  |
| CC(C)(C)c1nc2cc(S(=O)(=O)c3ccnc(C#N)c3)ccc2n1CC1CCOCC1 (as salt: methanesulfonate) [Co. No. 93] |  |  |  | 215.7 °C |  |  |
| CC(C)(C)c1nc2cc(S(=O)(=O)c3ccc(S(C)(=O)=O)s3)ccc2n1CC1CCOCC1 (as salt: HCl) [Co. No. 58] |  |  |  | 224 °C |  |  |
| CC(O)c1ccc(S(=O)(=O)c2ccc3c(c2)nc(C(C)(C)C)n3CC2CCOCC2)s1 (centres unmarked) |  |  |  | 192 °C |  |  |
| CC(C)(C)c1nc2cc(S(=O)(=O)c3ccnc(F)c3)ccc2n1CC1CCC1 (as salt: HCl) (hydrate or solvate) [Co. No. 136] |  |  |  | 184.3 °C |  |  |
| CC(C)(C)c1nc2cc(S(=O)(=O)c3ccc(C#N)s3)ccc2n1CC1CCOCC1 |  |  |  | 156 °C |  |  |
| Cc1cccc(S(=O)(=O)c2ccc3c(c2)nc(C(C)(C)C)n3CC2CCOCC2)n1 [Co. No. 109] | 324 | 0.813 nM | 263 nM |  |  |  |
| CC(C)(C)c1nc2cc(S(=O)(=O)c3ccnc(F)c3)ccc2n1CCCC(F)(F)F |  |  |  | 138.9 °C |  |  |
| COc1c[n+]([O-])ccc1S(=O)(=O)c1ccc2c(c1)nc(C(C)(C)C)n2CC1CCOCC1 [Co. No. 115] |  | 3.72 nM | 3630 nM |  |  |  |
| CC(C)(C)c1nc2cc(S(=O)(=O)c3ccc(O)nc3)ccc2n1CC1CCCCC1 [Co. No. 39] | 1216 | 1.7 nM | 2040 nM |  |  |  |
| CC(C)(C)c1nc2cc(S(=O)(=O)c3ccc(C(=O)N4CCCC4)cn3)ccc2n1CC1CCCCC1 [Co. No. 38] | >3631 | 2.75 nM | > 10000 nM |  |  |  |
| CC(C)(C)c1nc2cc(S(=O)(=O)c3ccn(C(F)F)c(=O)c3)ccc2n1CC1CCOCC1 [Co. No. 83] | 209 | 2 nM | 407 nM |  |  |  |
| CCOc1cc(S(=O)(=O)c2ccc3c(c2)nc(C(C)(C)C)n3CC2CCOCC2)ccn1 [Co. No. 9] | 4266 | 0.331 nM | 1410 nM |  | 4266 |  |
| Cc1cc(S(=O)(=O)c2ccc3c(c2)nc(C(C)(C)C)n3CC2CCOCC2)ccn1 [Co. No. 13] | 1622 | 1.26 nM | 2040 nM |  |  |  |
| CC(C)(C)c1nc2cc(S(=O)(=O)c3ccc(S(N)(=O)=O)s3)ccc2n1CC1CCOCC1 (as salt: HCl) [Co. No. 47] |  |  |  | 255 to 260 °C |  |  |
